Values quoted from earlier work, collected in patent US20070275060A1, “Extended release solid pharmaceutical composition containing carbidopa and levodopa” (OSMOTICA COSTA RICA SOCIEDAD ANONIMA, priority 2005, published 2007).

Settings: orally administered

N[C@@H](Cc1ccc(O)c(O)c1)C(=O)O [LD]
time of peak concentrations: 30 to 120 min
